These molecules were tested against T1, human orexin type 2 receptor (Homo sapiens, UniProt O43614) (assay: Measurement of orexin type 2 receptor agonist activity (calcium fluorescence, Fluo-4 AM, CHO cells forcibly expressing human OX2 receptor)). Settings: test compound 3 μM, DMSO = 0%, orexin A (human) 10 nM = 100%.
T1 construct: expressed in transfected cells
T1 sequence (O43614 1-444): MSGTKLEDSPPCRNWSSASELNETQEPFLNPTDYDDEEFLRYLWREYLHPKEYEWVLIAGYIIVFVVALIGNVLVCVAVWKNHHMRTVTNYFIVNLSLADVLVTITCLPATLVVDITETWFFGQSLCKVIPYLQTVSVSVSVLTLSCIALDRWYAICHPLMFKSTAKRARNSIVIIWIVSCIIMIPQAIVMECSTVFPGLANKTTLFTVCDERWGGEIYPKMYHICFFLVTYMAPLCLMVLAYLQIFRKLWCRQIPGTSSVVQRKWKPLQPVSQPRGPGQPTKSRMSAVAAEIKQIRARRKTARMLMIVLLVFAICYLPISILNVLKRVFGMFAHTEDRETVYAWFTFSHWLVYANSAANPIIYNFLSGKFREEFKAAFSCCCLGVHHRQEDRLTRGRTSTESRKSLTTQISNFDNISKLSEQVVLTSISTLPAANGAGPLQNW
Assay type: cell-based
Text: To obtain a cell clone stably expressing human orexin type 2 receptor, human orexin type 2 receptor cDNA was inserted into pcDNA3.1(+) plasmid vector (Invitrogen), and a plasmid DNA for expression of human orexin type 2 receptor (pcDNA3.1(+)/hOX2R) was cloned. The plasmid DNA was introduced into CHO-dhfr cell by an electroporation method, and human orexin type 2 receptor expressing clone cells were obtained by limiting dilution method by using G418 drug resistance as a selection marker.
CHO cells forcibly expressing human OX2 receptor were seeded in each well of 384 well black transparent bottom plate (BD Falcon) at 7,500 cells/well, and cultured for one day in a 5% CO2 incubator at 37° C. After removal of the medium in the cell plate, assay buffer A containing a calcium indicator (HBSS (Thermo Fisher Scientific), 20 mM HEPES (Thermo Fisher Scientific), 0.1% BSA (Sigma-Aldrich), 2.5 μg/mL Fluo-4 AM (DOJINDO Chemical), 0.08% Pluronic F127 (DOJINDO Chemical), 1.25 mM probenecid (DOJINDO Chemical)) was added at 30 μL/well. The plate was stood for 30 min in a 5% CO2 incubator at 37° C., and further stood at room temperature for 30 min. A test compound prepared by diluting with assay buffer B (HBSS, 20 mM HEPES, 0.1% BSA) was added at 10 μL/well, and the fluorescence value was measured by FDSSpCELL (Hamamatsu Photonics K. K.) every one sec for 1 min, and thereafter every two sec for 1 min 40 sec. The activity (%) of the test compound was calculated assuming that variation in the fluorescence value when DMSO was added instead of the test compound was 0%, and variation in the fluorescence value when orexin A (human) (PEPTIDE INSTITUTE, INC.) was added at the final concentration of 10 nM was 100%.

OX2R agonist activity (3 μM, %) [%]	Compound
104	Cc1cc2n(n1)C(CO[C@H]1CC[C@@H](c3ccccc3)CC1)C(NS(C)(=O)=O)CC2 (mixture of isomers) [Example 1, rac-N-[(6S,7R)-2-methyl-7-({[(1s,4S)-4-phenylcyclohexyl]oxy}methyl)-4,5,6,7-tetrahydropyrazolo[1,5-a]pyridin-6-yl]methanesulfonamide]
99	Cc1nc2n(n1)C(CO[C@H]1CC[C@@H](c3ccccc3)CC1)C(NS(C)(=O)=O)CC2 (mixture of isomers) [Example 5, rac-N-[(5R,6S)-2-methyl-5-({[(1s,4S)-4-phenylcyclohexyl]oxy}methyl)-5,6,7,8-tetrahydro[1,2,4]triazolo[1,5-a]pyridin-6-yl]methanesulfonamide]
92	CCc1cc2n(n1)[C@@H](Cc1cccc(-c3ccccc3)c1)[C@@H](NS(C)(=O)=O)CC2 (racemic) [Example 8, rac-N-{(6S,7S)-7-[([1,1′-biphenyl]-3-yl)methyl]-2-ethyl-4,5,6,7-tetrahydropyrazolo[1,5-a]pyridin-6-yl}methanesulfonamide]
63	CS(=O)(=O)N[C@H]1CCc2cccnc2[C@H]1Cc1cccc(-c2ccccc2)c1 (racemic) [Example 22, rac-N-{(7S,8S)-8-[([1,1′-biphenyl]-3-yl)methyl]-5,6,7,8-tetrahydroquinolin-7-yl}methanesulfonamide]
102	CCc1cc2n(n1)[C@@H](COC1CCN(c3ncccn3)CC1)[C@@H](NS(C)(=O)=O)CC2 (racemic) [Example 28, rac-N-[(6S,7R)-2-ethyl-7-({[1-(pyrimidin-2-yl)piperidin-4-yl]oxy}methyl)-4,5,6,7-tetrahydropyrazolo[1,5-a]pyridin-6-yl]methanesulfonamide]
80	CC(C)c1cc2n(n1)[C@@H](COC1CCN(c3ccccc3F)CC1)[C@@H](NS(C)(=O)=O)CC2 (racemic) [Example 29, rac-N-[(6S,7R)-7-({[1-(2-fluorophenyl)piperidin-4-yl]oxy}methyl)-2-(propan-2-yl)-4,5,6,7-tetrahydropyrazolo[1,5-a]pyridin-6-yl]methanesulfonamide]
80	CCc1cc2n(n1)[C@@H](COC1CCN(c3ncc(F)c(C)n3)CC1)[C@@H](NS(C)(=O)=O)CC2 (racemic) [Example 41, rac-N-[(6S,7R)-2-ethyl-7-({[1-(5-fluoro-4-methylpyrimidin-2-yl)piperidin-4-yl]oxy}methyl)-4,5,6,7-tetrahydropyrazolo[1,5-a]pyridin-6-yl]methanesulfonamide]

The remaining lines, values behind:

Compound	OX2R agonist activity (3 μM, %) [%]
CCc1cc2n(n1)C(CO[C@H]1CC[C@@H](c3ccccc3)CC1)C(NS(C)(=O)=O)CC2 (mixture of isomers) [Example 2, rac-N-[(6S,7R)-2-ethyl-7-({[(1s,4S)-4-phenylcyclohexyl]oxy}methyl)-4,5,6,7-tetrahydropyrazolo[1,5-a]pyridin-6-yl]methanesulfonamide]	107
Cc1cc2n(n1)[C@@H](COC1CCN(c3ncccn3)CC1)[C@@H](NS(C)(=O)=O)CC2 (racemic) [Example 3, rac-N-[(6S,7R)-2-methyl-7-({[1-(pyrimidin-2-yl)piperidin-4-yl]oxy}methyl)-4,5,6,7-tetrahydropyrazolo[1,5-a]pyridin-6-yl]methanesulfonamide]	82
Cc1cc2n(n1)[C@@H](COC1CCN(c3ncc(F)cn3)CC1)[C@@H](NS(C)(=O)=O)CC2 (racemic) [Example 4, rac-N-[(6S,7R)-7-({[1-(5-fluoropyrimidin-2-yl)piperidin-4-yl]oxy}methyl)-2-methyl-4,5,6,7-tetrahydropyrazolo[1,5-a]pyridin-6-yl]methanesulfonamide]	98
CS(=O)(=O)NC1CCc2ncnn2C1CO[C@H]1CC[C@@H](c2ccccc2)CC1 (mixture of isomers) [Example 6, rac-N-[(5R,6S)-5-({[(1s,4S)-4-phenylcyclohexyl]oxy}methyl)-5,6,7,8-tetrahydro[1,2,4]triazolo[1,5-a]pyridin-6-yl]methanesulfonamide]	85
Cc1cc2n(n1)[C@@H](Cc1cccc(-c3ccccc3)c1)[C@@H](NS(C)(=O)=O)CC2 (racemic) [Example 7, rac-N-{(6S,7S)-7-[([1,1′-biphenyl]-3-yl)methyl]-2-methyl-4,5,6,7-tetrahydropyrazolo[1,5-a]pyridin-6-yl}methanesulfonamide]	77
CS(=O)(=O)N[C@H]1CCc2ccnn2[C@H]1COC1CCN(c2ncc(F)cn2)CC1 (racemic) [Example 9, rac-N-[(6S,7R)-7-({[1-(5-fluoropyrimidin-2-yl)piperidin-4-yl]oxy}methyl)-4,5,6,7-tetrahydropyrazolo[1,5-a]pyridin-6-yl]methanesulfonamide]	85
Cc1nnn2c1CC[C@H](NS(C)(=O)=O)[C@@H]2COC1CCN(c2ncc(F)cn2)CC1 (racemic) [Example 10, rac-N-[(6S,7R)-7-({[1-(5-fluoropyrimidin-2-yl)piperidin-4-yl]oxy}methyl)-3-methyl-4,5,6,7-tetrahydro[1,2,3]triazolo[1,5-a]pyridin-6-yl]methanesulfonamide]	69
Cc1nn2c(c1C)CC[C@H](NS(C)(=O)=O)[C@@H]2COC1CCN(c2ncc(F)cn2)CC1 (racemic) [Example 12, rac-N-[(6S,7R)-7-({[1-(5-fluoropyrimidin-2-yl)piperidin-4-yl]oxy}methyl)-2,3-dimethyl-4,5,6,7-tetrahydropyrazolo[1,5-a]pyridin-6-yl]methanesulfonamide]	102
Cc1nn2c(c1Cl)CC[C@H](NS(C)(=O)=O)[C@@H]2COC1CCN(c2ncc(F)cn2)CC1 (racemic) [Example 15, rac-N-[(6S,7R)-3-chloro-7-({[1-(5-fluoropyrimidin-2-yl)piperidin-4-yl]oxy}methyl)-2-methyl-4,5,6,7-tetrahydropyrazolo[1,5-a]pyridin-6-yl]methanesulfonamide]	91
CC(C)n1cc2c(n1)[C@@H](Cc1cccc(-c3ccccc3)c1)[C@@H](NS(C)(=O)=O)CC2 (racemic) [Example 16, rac-N-[(6S,7S)-7-[([1,1′-biphenyl]-3-yl)methyl]-2-(propan-2-yl)-4,5,6,7-tetrahydro-2H-indazol-6-yl]methanesulfonamide]	84
Cc1nc2c(s1)CC[C@H](NS(C)(=O)=O)[C@@H]2Cc1cccc(-c2ccccc2)c1 (racemic) [Example 17, rac-N-{(4S,5S)-4-[([1,1′-biphenyl]-3-yl)methyl]-2-methyl-4,5,6,7-tetrahydro-1,3-benzothiazol-5-yl}methanesulfonamide]	62
CC(C)c1cc2n(n1)[C@@H](Cc1cccc(-c3ccccc3)c1)[C@@H](NS(C)(=O)=O)CC2 (racemic) [Example 23, rac-N-[(6S,7S)-7-[([1,1′-biphenyl]-3-yl)methyl]-2-(propan-2-yl)-4,5,6,7-tetrahydropyrazolo[1,5-a]pyridin-6-yl]methanesulfonamide]	109
CCc1nn2c(c1Cl)CC[C@H](NS(C)(=O)=O)[C@@H]2COC1CCN(c2ncccn2)CC1 (racemic) [Example 32, rac-N-[(6S,7R)-3-chloro-2-ethyl-7-({[1-(pyrimidin-2-yl)piperidin-4-yl]oxy}methyl)-4,5,6,7-tetrahydropyrazolo[1,5-a]pyridin-6-yl]methanesulfonamide]	92
CC(O)c1cc2n(n1)C(Cc1cccc(-c3ccccc3)c1)C(NS(C)(=O)=O)CC2 (racemic) [Example 36, N-[(6SR,7SR)-7-[([1,1′-biphenyl]-3-yl)methyl]-2-(1-hydroxyethyl)-4,5,6,7-tetrahydropyrazolo[1,5-a]pyridin-6-yl]methanesulfonamide]	105
CCc1cc2n(n1)[C@@H](COC1CCN(c3ncc(F)c(OC)n3)CC1)[C@@H](NS(C)(=O)=O)CC2 (racemic) [Example 40, rac-N-[(6S,7R)-2-ethyl-7-({[1-(5-fluoro-4-methoxypyrimidin-2-yl)piperidin-4-yl]oxy}methyl)-4,5,6,7-tetrahydropyrazolo[1,5-a]pyridin-6-yl]methanesulfonamide]	96

Reference: US12091410B2, “Heterocyclic compound” (Takeda Pharmaceutical Company Limited, priority 2018, dated 2024)
